{"source": "patent US20240207453A1", "about": "“13C METHACETIN GRANULE, AND PREPARATION METHOD THEREFOR AND USE THEREOF” (BEIJING RICHEN-FORCE SCIENCE & TECHNOLOGY CO., LTD, priority 2021, published 2024)", "key": {"[1]": {"experiment": "comparison of water solubility", "format": "physicochemical", "settings": "against the requirements of clinical use"}, "[2]": {"experiment": "comparison of stability (appearance, impurities) during storage", "format": "physicochemical", "protocol": "Experimental Groups 1 to 6: the 13C-methacetin granular formulations prepared in Examples 1 to 6 of the present disclosure\nControl Group 1: a powdered formulation. The respective adjuvant materials and the raw drug were weighed at a prescribed ratio and mixed uniformly in a mixer for 3 hours, whereby a powdered formulation or a powder was prepared.\nControl Group 2: another granular formulation.\n13C-methacetin has a low solubility in water, has a slow dissolution rate, should be stirred for a long time when being dissolved in 100 ml of water in an amount of 50 mg, and thus is not convenient in oral administration. […] The powders are agglomerated during storage. The addition of the adjuvant materials helps to improve the stability of the product, and the degraded impurities are less than those of the raw drug powder. […] By comparison, the developed granular formulation has better stability and water solubility, is stable in quality, and has high value in use."}}}
{"smiles": "CC(=O)Nc1ccc(O[13CH3])cc1", "note": "[13C-methacetin, N-acetyl-p-anisidine (methoxy-13C)]", "values": [{"measurement": "water solubility (in words)", "setting": "[1]", "value": "low"}, {"measurement": "Stability: Appearance (agglomeration)", "setting": "[2]", "value": "likely to agglomerate"}]}
